Experiments:
MCR-4 = MCR-4 (Homo sapiens, UniProt P32245); test: cAMP concentration-response to α-MSH in HEK-293 cells transfected with human MCR-4; format: cell-based; parameters: expressed in transfected cells; conditions: presence and absence of 30 μM antagonist
Method: A second method for studying MCR antagonists is to use mammalian cells stably transfected with the cDNA for various human MCR.
Human embryonic kidney (HEK-293) cells were maintained in modified Eagle's medium (DMEM/H-16/F-12) with 10% fetal calf serum (FBS), 100 U/mL penicillin “G” and 100 μg/mL streptomycin (P/S; Gemini). Transfections were performed using cDNA containing the human MCR-1 receptor (pcDNAI/NEO.hMC1), or MCR-4 (pcCMV.hMC4) receptors. HEK-293 cells are stably transformed with the human MCR-1 and MCR-4 receptors by electroporating 20 μg of plasmid cDNA using a Gene Pulser transfection apparatus (450 V, 960 μF; BioRad, Hercules, Calif.). After six days, stable MC clonal cell lines were selected by addition of 400 μg/ml G-418 to the medium and kept frozen for future use.
(§1) Peptide concentration-response measurements are made in HEK-293 cells by quantifying cAMP levels using a [8-^3H]-CAMP kit from Amersham. Briefly, cells transfected with MC receptors, plated to confluency in 96-well tissue culture plates, are rinsed for 1 hr with 70% (vol/vol) L-15 medium containing 0.5% bovine serum albumin. […] Cellular debris was separated from extracted samples by centrifugation, 400 μL aliquots of the supernatant lyophilized, and total cAMP content quantified by isotope counting.
(§2) HEK-293 cells were maintained and transfected As described in Example 2. […]

MCR-3 = MCR-3 (Homo sapiens, UniProt P41968); test: cAMP concentration-response to α-MSH in HEK-293 cells transfected with human MCR-3; format: cell-based; parameters: expressed in transfected cells; conditions: presence and absence of 30 μM antagonist
Source text: (§3) A second method for studying MCR antagonists is to use mammalian cells stably transfected with the cDNA for various human MCR. These transfected cells manifest an increased CAMP response to α-MSH stimulation and agents which antagonize MCR will block this stimulating effect of α-MSH. The inhibitory effects of antagonists can be quantified by the change in the effective concentration (EC50) of α-MSH i the presence of antagonist, or by computation of Ki value by a Schild regression analysis.
Peptide concentration-response measurements are made in HEK-293 cells by quantifying cAMP levels using a [8-^3H]-CAMP kit from Amersham. Briefly, cells transfected with MC receptors, plated to confluency in 96-well tissue culture plates, are rinsed for 1 hr with 70% (vol/vol) L-15 medium containing 0.5% bovine serum albumin. After a 30 min exposure to test ligands, HEK-293 cells are rinsed twice with ice-cold 70% phosphate-buffered saline (0.07 g/L CaCl2, 0.07 g/L MgCl2.6H2O, 0.14 g/L KH2PO4, 1.51 g/L Na2HPO4.7H2O, 0.14 g/L KCl, 5.6 g/L NaCl, pH 7.4), and intracellular CAMP extracted with 1 mL of 60% (vol/vol) ethanol. Cellular debris was separated from extracted samples by centrifugation, 400 μL aliquots of the supernatant lyophilized, and total cAMP content quantified by isotope counting.
as §2

MCR-1 = MCR-1 (Homo sapiens, UniProt Q01726); test: cAMP concentration-response to α-MSH in HEK-293 cells transfected with human MCR-1; format: cell-based; parameters: expressed in transfected cells; conditions: presence and absence of 30 μM antagonist
Source text: as §3
Human embryonic kidney (HEK-293) cells were maintained in modified Eagle's medium (DMEM/H-16/F-12) with 10% fetal calf serum (FBS), 100 U/mL penicillin “G” and 100 μg/mL streptomycin (P/S; Gemini). Transfections were performed using cDNA containing the human MCR-1 receptor (pcDNAI/NEO.hMC1), or MCR-4 (pcCMV.hMC4) receptors. HEK-293 cells are stably transformed with the human MCR-1 and MCR-4 receptors by electroporating 20 μg of plasmid cDNA using a Gene Pulser transfection apparatus (450 V, 960 μF; BioRad, Hercules, Calif.). […]
Peptide concentration-response measurements are made in HEK-293 cells by quantifying cAMP levels using a [8-^3H]-CAMP kit from Amersham. […] Cellular debris was separated from extracted samples by centrifugation, 400 μL aliquots of the supernatant lyophilized, and total cAMP content quantified by isotope counting. […]

[1] = target: T1, ACTH (MCR-2) receptor endogenous to murine Y1 adrenocortical cells (Mus musculus, UniProt Q64326); test: cAMP concentration-response to ACTH-(1-24) in Y1 cells; format: cell-based; conditions: Y1 cells; 30 μM
T1 construct: the ACTH (MCR-2) receptor endogenous to murine Y1 adrenocortical cells; endogenous in cells; host or cells: murine Y1 adrenocortical cells
Method: as §1
Concentration response measurements were made also as described in Example 2, but in Xenopus fibroblasts, COS-7, HEK-293, and Y1 cells.

[2] = system: dispersion of melanin initiated by norepinephrine, serotonin, vasotocin, PACAP-27; test: Selectivity: melanin dispersion initiated by other ligands in melanophores; format: cell-based, Xenopus laevis; conditions: 30 nM

T1 sequence (Q64326 whole entry): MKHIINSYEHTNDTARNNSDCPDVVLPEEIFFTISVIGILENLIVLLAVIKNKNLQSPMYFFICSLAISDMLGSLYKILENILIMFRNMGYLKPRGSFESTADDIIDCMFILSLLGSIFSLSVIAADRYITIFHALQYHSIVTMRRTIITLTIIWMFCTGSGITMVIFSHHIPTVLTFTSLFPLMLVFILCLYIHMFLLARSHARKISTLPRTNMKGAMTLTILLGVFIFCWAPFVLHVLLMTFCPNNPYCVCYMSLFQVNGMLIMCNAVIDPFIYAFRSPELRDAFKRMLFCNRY
T1 sequence (Q9D159 whole entry partner): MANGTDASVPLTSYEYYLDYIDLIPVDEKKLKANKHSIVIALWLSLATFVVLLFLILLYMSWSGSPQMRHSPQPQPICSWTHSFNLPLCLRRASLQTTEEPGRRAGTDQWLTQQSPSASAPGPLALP
Chain of MCR-3 (P41968 whole entry): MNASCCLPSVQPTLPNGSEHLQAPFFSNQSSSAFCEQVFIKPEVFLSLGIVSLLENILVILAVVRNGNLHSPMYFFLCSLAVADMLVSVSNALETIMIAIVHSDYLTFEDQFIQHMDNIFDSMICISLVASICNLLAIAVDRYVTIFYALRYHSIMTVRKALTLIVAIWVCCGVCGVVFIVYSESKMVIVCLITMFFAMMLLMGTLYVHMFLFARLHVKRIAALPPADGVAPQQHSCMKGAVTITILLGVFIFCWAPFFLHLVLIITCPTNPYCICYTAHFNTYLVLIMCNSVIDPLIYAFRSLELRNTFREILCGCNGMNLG
Chain of MCR-4 (P32245 whole entry): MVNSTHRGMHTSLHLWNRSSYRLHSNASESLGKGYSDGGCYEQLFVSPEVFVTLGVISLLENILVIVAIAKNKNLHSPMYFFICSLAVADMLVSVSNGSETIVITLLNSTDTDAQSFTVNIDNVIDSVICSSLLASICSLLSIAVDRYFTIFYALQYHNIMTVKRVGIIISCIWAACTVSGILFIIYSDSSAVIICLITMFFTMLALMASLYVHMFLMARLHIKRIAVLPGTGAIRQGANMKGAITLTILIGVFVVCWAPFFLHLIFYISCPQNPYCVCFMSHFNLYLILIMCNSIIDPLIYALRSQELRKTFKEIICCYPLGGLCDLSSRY
Chain of MCR-1 (Q01726 whole entry): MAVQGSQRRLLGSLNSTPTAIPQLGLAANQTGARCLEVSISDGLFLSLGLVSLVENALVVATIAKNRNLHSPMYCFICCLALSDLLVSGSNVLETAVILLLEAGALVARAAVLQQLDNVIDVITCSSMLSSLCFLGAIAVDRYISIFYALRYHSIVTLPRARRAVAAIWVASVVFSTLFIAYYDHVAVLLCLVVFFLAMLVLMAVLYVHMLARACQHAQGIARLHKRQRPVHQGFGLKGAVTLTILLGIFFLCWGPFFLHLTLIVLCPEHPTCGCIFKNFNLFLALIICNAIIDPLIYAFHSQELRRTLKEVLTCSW

For `CC[C@H](C)[C@H](NC(=O)[C@H](CCCNC(=N)N)NC(=O)[C@H](CCCNC(=N)N)NC(=O)[C@H](CC(C)C)NC(=O)[C@H](Cc1ccccc1)NC(=O)CNC(=O)CN)C(=O)N[C@@H](CCCNC(=N)N)C(=O)N1CCC[C@H]1C(=O)N[C@@H](CCCCN)C(=O)N[C@@H](CC(C)C)C(=O)N[C@@H](CCCCN)C(=O)O` [dynorphin A(2-13)], the “Dose ratio from α-MSH dose-response curves” value (from here on “Dose ratio”) (MCR-4) was 147±13, the “Dose ratio” value (MCR-3) was 128±44 and the “Dose ratio” value (MCR-1) was 250±31. For the same compound, the “shift of the concentration-response curve of ACTH-(1-24) to the right” value [1] was “approximately 15 fold”.
With `CSCC[C@@H]1NC(=O)[C@H](C)NC(=O)[C@H]([C@@H](C)O)NC(=O)CNC(=O)[C@H](CC(C)C)NC(=O)[C@H](CCCCN)NC(=O)[C@H](CCCNC(=N)N)NC(=O)[C@@H]2CSSC[C@@H]3NC(=O)[C@@H]4CCCN4C(=O)[C@H](C(C)C)NC(=O)[C@H](CCC(N)=O)NC(=O)[C@H](CCC(N)=O)NC(=O)CNC(=O)[C@H](CC(C)C)NC(=O)[C@@H]4CSSC[C@H](NC(=O)[C@H]([C@@H](C)O)NC(=O)[C@H](C)NC(=O)[C@H](CSSC[C@@H](C(=O)N[C@@H](CO)C(=O)N[C@@H](CCCNC(=N)N)C(=O)N[C@H](C(N)=O)[C@@H](C)O)NC(=O)[C@@H]5CCCN5C(=O)[C@H](CC(N)=O)NC1=O)NC(=O)[C@@H]1CCCN1C(=O)[C@H](CC(=O)O)NC(=O)[C@H](CSSC[C@H](NC(=O)[C@H](CCCNC(=N)N)NC(=O)[C@H](CCCNC(=N)N)NC(=O)[C@H](CO)NC(=O)[C@@H](N)CO)C(=O)N[C@@H](C(C)C)C(=O)N[C@@H](CCCNC(=N)N)C(=O)N[C@@H](CC(C)C)C(=O)N[C@@H](Cc1c[nH]cn1)C(=O)N[C@@H](CCC(=O)O)C(=O)N[C@@H](CO)C(=O)N4)NC3=O)C(=O)N[C@@H](Cc1ccc(O)cc1)C(=O)N[C@H]1CSSC[C@H](NC(=O)[C@H](Cc3ccccc3)NC(=O)[C@H](C)NC(=O)[C@H](CC(N)=O)NC(=O)[C@H](Cc3ccccc3)NC(=O)[C@H](Cc3ccccc3)NC(=O)[C@H](CCCNC(=N)N)NC1=O)C(=O)N[C@@H](Cc1ccc(O)cc1)C(=O)N2` [ARP-(83-132)-NH2, SSRRCVRL HESCLGQQVPCCDPCATCYCRFFNAFCYCRKLGTAMNPCSRT] the “effect on concentration-response curves evoked with norepinephrine, serotonin, PACAP-27, and Arg8-vasotocin” value [2] was “no effect”.

Source: US6953779B2, “Melanocortin receptor antagonists and modulations of melanocortin receptor activity” (The Regents of the University of California, priority 1998, dated 2005)
